The target of experiment [1] is T1, mouse RyR2 NTR (Mus musculus, UniProt E9Q401, K30C/K441C, form not given).
T1 sequence (E9Q401 1-547 K30C/K441C): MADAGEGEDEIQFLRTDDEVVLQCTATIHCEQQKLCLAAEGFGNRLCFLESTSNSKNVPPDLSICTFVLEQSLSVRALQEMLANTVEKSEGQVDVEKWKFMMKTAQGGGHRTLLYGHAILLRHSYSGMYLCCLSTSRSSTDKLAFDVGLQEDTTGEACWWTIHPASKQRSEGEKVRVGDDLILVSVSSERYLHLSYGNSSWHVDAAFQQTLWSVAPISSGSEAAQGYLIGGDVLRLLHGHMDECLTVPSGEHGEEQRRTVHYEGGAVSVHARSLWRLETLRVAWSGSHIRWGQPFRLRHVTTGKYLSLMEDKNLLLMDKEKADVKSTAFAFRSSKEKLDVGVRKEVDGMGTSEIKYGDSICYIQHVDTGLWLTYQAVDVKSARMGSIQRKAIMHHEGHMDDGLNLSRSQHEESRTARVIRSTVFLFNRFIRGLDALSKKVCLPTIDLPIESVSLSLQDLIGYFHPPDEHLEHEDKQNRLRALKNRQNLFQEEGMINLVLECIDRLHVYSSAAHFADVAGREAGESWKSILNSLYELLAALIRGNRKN
Description: FLT-FRET dose-response with AC-NTR biosensor. Format: binding. Conditions: AC-NTR biosensor. From the text: The NTR of mouse RyR2 (residues 1–547) was cloned and expressed as previously described ([27]). The DNA construct contains a 6×His tag, a maltose-binding protein (MBP) tag, and a tobacco etch virus (TEV) protease cleavage site. The seven native solvent-exposed cysteine residues were substituted with alanine residues, and two constructs were engineered with Cys substitutions at surface residues R383 and K441 (in the B and C domains, respectively; termed BC) and at K30 and K441 (in the A and C domains, respectively; termed AC) for labeling with spectroscopic probes such as appropriate donor–acceptor fluorophores for FRET (for the purpose of this report, these are considered the WT forms of AC and BC). A variant of the BC construct corresponding to the disease-associated mutant (R420Q) was also prepared. For this site-directed mutagenesis work, we used the QuikChange (Stratagene) and Phusion High-Fidelity PCR (Thermo Fisher Scientific) kits. The WT-NTR, R420Q-NTR, AC- and BC-NTR, AC- and BC-R420Q-NTR protein constructs were expressed in Escherichia coli Rosetta (DE3) pLacI cells at 18 °C and purified with a protocol adapted from previously published work ([26]). An amylose column was first applied after the cells were lysed by ultrasonication. The protein in the elution was then cleaved using TEV protease. The cleaved crude protein went through the second amylose column to separate from the MBP and then followed by a Superdex S-200 size exclusion column in a buffer consisting of 250 mM KCl, 10 mM HEPES, and 14 mM β-mercaptoethanol (pH 7.4). The NTR protein (3 μM) was then incubated in 10 mM HEPES, 250 mM KCl (pH 7.4, 2 h, 21 °C) with the fluorescent probes Alexa Fluor 488 maleimide (AF488, donor; 40 μM) and Alexa Fluor 568 maleimide (AF568, acceptor; 60 μM). The maleimide of the dye reacts with the thiols the Cys residues engineered into NTR, forming a covalently labeled protein. The Alexa dyes were added last to the reaction mixture, from 10 mM DMSO stock solutions. This reaction is not selective to one site (K30C or K441C), and we anticipate that there is a mixed population with K30C or K441C labeled with either AF488 (donor) or AF568 (acceptor). We focused on maximizing the fraction containing donor–acceptor pairs, thus maximizing FRET efficiency and the precision for detecting a change in structure as an indication that a compound interacts with the NTR biosensor. The labeling efficiency was determined by comparing the molar concentration of the bound dye, determined from UV-Vis absorbance, to the protein concentration, determined from gel densitometry. Essentially complete labeling was confirmed from electrospray ionization mass spectrometry. CD spectra of the WT-NTR and mutant R420Q-NTR constructs before and after labeling were recorded using a JASCO J-815 CD spectrometer (JASCO), confirming similar folding (Fig. S1).
The 1536-well assay plates were prepared as described in our previous reports ([21]). The LOPAC (Sigma-Aldrich) collection received in 96-well plates was reformatted into 384-well polypropylene intermediate plates (Greiner Bio-One) using a multichannel liquid handler, BioMek FX (Beckman Coulter), then transferred to 384-well Echo Qualified source plates (Labcyte Inc). Assay plates were prepared as previously described ([20]). On screening days, these plates were thawed out and were loaded with labeled NTR (5 μl, 20 nM final concentration) using a Multidrop Combi automated sample dispenser.
HTS measurements were conducted in a prototype top-read FLT plate reader (FLT-PR, Fluorescence Innovations, Inc), which reads each 1536-well plate in ∼3 min ([63], [64]). AF488 donor fluorescence was excited with a 473 nm microchip laser from Concepts Research Corporation, and the emission signal was split into two channels by a dichroic mirror and acquired with 517 ± 10 nm (channel 1) and 535 ± 7 nm band-pass filters (channel 2) (Semrock). […]

For experiment [2], the system named is rat skeletal muscle fibers. The experiment can be described thus: Electrically evoked Ca2+ transients in skinned skeletal muscle fibers. Type of experiment: cell-based. Conditions: 10 μM FA or 1 mM tetracaine, 1 Hz. From the text:
Mechanically skinned fibers were isolated, mounted in a custom chamber, and bathed in a resting physiological solution containing rhod-2, as previously described ([21]). The Ca^2+-sensitive dye rhod-2 was used to track cytosolic Ca^2+ transients when exposed to electrical stimulation. Field pulses at 1 Hz frequency and 4 ms in duration were applied across platinum electrodes parallel to the long axis of the fiber. Imaging for electrical stimulation experiments was in xt mode, at a rate of 2 ms.line^−1. DMSO vehicle (0.01%), FA (10 μM), and tetracaine were added to the physiological solution. Each treatment was applied precisely at the seventh successive Ca^2+ transient.

pEC50: −log10 of the molar value.

For the molecule `CC(=O)O[C@H]1C[C@@]2(C)[C@@H](C[C@@H](O)[C@H]3[C@@]4(C)CC[C@@H](O)[C@@H](C)[C@@H]4CC[C@@]32C)/C1=C(\CCC=C(C)C)C(=O)O` [FA, (2Z)-2-[(3R,4S,5S,8S,9S,10S,11R,13R,14S,16S)-16-acetyloxy-3,11-dihydroxy-4,8,10,14-tetramethyl-2,3,4,5,6,7,9,11,12,13,15,16-dodecahydro-1H-cyclopenta[a]phenanthren-17-ylidene]-6-methylhept-5-enoic acid], the ΔFLT result in experiment [1] (0 to 100 μM, CPNQ/corbadrine decrease FLT, FA/tacrolimus increase FLT) is listed as “≈ 0.1 ns”. The pEC50 in experiment [1] (read-out: EC50, FRET dose-response, Hill fit, Table S4) was 5.42. Moreover, the “electrically induced Ca2+ transient amplitude” value in experiment [2] is recorded as “did not have an effect”.

As usually defined, the pEC50 is the negative decadic logarithm of the EC50, by convention in mol/L.

The record behind these values is PMC8689225, “Cardiac ryanodine receptor N-terminal region biosensors identify novel inhibitors via FRET-based high-throughput screening” (The Journal of Biological Chemistry, 2021).
